In patent US7608619B2, “Substituted oxazole compounds with analgesic activity” (Gruenenthal GmbH, priority 2005, dated 2009):

Target: T1, human μ-opiate receptor (Homo sapiens, UniProt P35372)
T1 construct: purchased Nen company, Zaventem, Belgium RB-HOM; host or cells: CHO-K1 cells (membrane preparation)
Assay: Affinity for the human μ-opiate receptor ([3H]-naloxone displacement, SPA, CHO-K1 membrane preparation)
Details: test substance 1 μmole/l; displacement of 1 nmole/l [3H]-naloxone; percentage inhibition of the specific binding; read-out: μ-opioid receptor, % inhibition [1 μM]
Method in brief: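 [3H]-naloxone (1 nmol/l) displacement by SPA with WGA beads, using membranes of CHO-K1 cells expressing the receptor, in 50 mmol/l Tris-HCl with 0.05% azide and 0.06% BSA; 90 min at room temperature. Non-specific binding defined with 25 μmol/l naloxone. Value is % inhibition of specific binding at 1 μmol/l test compound.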

T1 sequence (P35372 whole entry): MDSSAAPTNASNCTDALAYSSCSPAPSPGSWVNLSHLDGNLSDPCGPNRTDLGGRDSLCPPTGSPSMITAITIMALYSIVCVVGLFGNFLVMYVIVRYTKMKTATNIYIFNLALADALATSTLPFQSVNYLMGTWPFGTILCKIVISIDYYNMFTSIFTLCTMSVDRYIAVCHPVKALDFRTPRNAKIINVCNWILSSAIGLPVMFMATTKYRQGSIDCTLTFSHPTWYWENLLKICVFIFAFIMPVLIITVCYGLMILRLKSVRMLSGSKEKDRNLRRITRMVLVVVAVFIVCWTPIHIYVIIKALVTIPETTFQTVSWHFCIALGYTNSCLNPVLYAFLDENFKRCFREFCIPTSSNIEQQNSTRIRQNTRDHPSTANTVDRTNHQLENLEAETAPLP

Compared with CN(C)C(c1cccs1)C1CCC(C(c2nc(Cc3ccccc3)c(N3CCCC3)o2)N2CCc3ccccc3C2)CC1 (stereo not drawn) [compound 146, ({4-[(4-benzyl-5-pyrrolidin-1-yl-oxazol-2-yl)-(3,4-dihydro-1H-isoquinolin-2-yl)-methyl]-cyclohexyl}-thiophen-2-yl-methyl)-dimethylamine], CC1CN(c2oc(C(C3CCC(C(c4cccs4)N(C)C)CC3)N3CCc4ccccc4C3)nc2Cc2ccccc2)CC(C)O1 (stereo not drawn) [compound 148, ({4-[[4-benzyl-5-(2,6-dimethylmorpholin-4-yl)-oxazol-2-yl]-(3,4-dihydro-1H-isoquinolin-2-yl)-methyl]-cyclohexyl}-thiophen-2-yl-methyl)-dimethylamine] is lower in inhibition at 1 µM: 92% for the first, 84% for the second.

First: COc1ccc(N2CCN(c3oc(C(C4CCC(C(c5cccs5)N(C)C)CC4)N4CCc5ccccc5C4)nc3Cc3ccccc3)CC2)cc1 (stereo not drawn) [compound 147, ({4-[{4-benzyl-5-[4-(4-methoxyphenyl)-piperazin-1-yl]-oxazol-2-yl}-(3,4-dihydro-1H-isoquinolin-2-yl)-methyl]-cyclohexyl}-thiophen-2-yl-methyl)-dimethylamine]
Second: COc1ccc(N2CCN(c3oc(C(CC4CCC(C(c5cccs5)N(C)C)CC4)N4CCc5ccccc5C4)nc3Cc3ccccc3)CC2)cc1 (stereo not drawn) [compound 166, ({4-[2-{4-benzyl-5-[4-(4-methoxy-phenyl)-piperazin-1-yl]-oxazol-2-yl}-2-(3,4-dihydro-1H-isoquinolin-2-yl)-ethyl]-cyclohexyl}-thiophen-2-yl-methyl)-dimethylamine]
The inhibition at 1 µM of the first is higher: 91% for the first, 78% for the second.

Compared with CN(C)C(c1cccc(F)c1)C1CCC(CC(c2nc(Cc3ccccc3)c(N3CCCC3)o2)N2CCOCC2)CC1 (stereo not drawn) [compound 149, [{4-[2-(4-benzyl-5-pyrrolidin-1-yl-oxazol-2-yl)-2-morpholin-4-yl-ethyl]-cyclohexyl}-(3-fluorophenyl)-methyl]-dimethylamine], CN(C)C(c1cccc(F)c1)C1CCC(CC(c2nc(Cc3ccccc3)c(N3CCOCC3)o2)N2CCOCC2)CC1 (stereo not drawn) [compound 150, [{4-[2-(4-benzyl-5-morpholin-4-yl-oxazol-2-yl)-2-morpholin-4-yl-ethyl]-cyclohexyl}-(3-fluorophenyl)-methyl]-dimethylamine] is lower in inhibition at 1 µM: 87% for the first, 75% for the second.

First: COc1ccc(N2CCN(c3oc(C(CC4CCC(C(c5cccc(F)c5)N(C)C)CC4)N4CCOCC4)nc3Cc3ccccc3)CC2)cc1 (stereo not drawn) [compound 151, [[4-(2-{4-benzyl-5-[4-(4-methoxyphenyl)-piperazin-1-yl]-oxazol-2-yl}-2-morpholin-4-yl-ethyl)-cyclohexyl]-(3-fluorophenyl)-methyl]-dimethylamine]
Second: COc1ccc(N2CCN(C(CC3CCC(C(c4cccc(F)c4)N(C)C)CC3)c3nc(Cc4ccccc4)c(N4CCOCC4)o3)CC2)cc1 (stereo not drawn) [compound 154, [(4-{2-(4-benzyl-5-morpholin-4-yl-oxazol-2-yl)-2-[4-(4-methoxy-phenyl)-piperazin-1-yl]-ethyl}-cyclohexyl)-(3-fluorophenyl)-methyl]-dimethylamine]
The inhibition at 1 µM of the first is higher: 89% for the first, 86% for the second.

Going from CC1CN(c2oc(C(CC3CCC(C(c4cccc(F)c4)N(C)C)CC3)N3CCOCC3)nc2Cc2ccccc2)CC(C)O1 (stereo not drawn) [compound 152, [(4-{2-[4-benzyl-5-(2,6-dimethylmorpholin-4-yl)-oxazol-2-yl]-2-morpholin-4-yl-ethyl}-cyclohexyl)-(3-fluorophenyl)-methyl]-dimethylamine] to CC1CN(c2oc(C(CC3CCC(C(c4cccs4)N(C)C)CC3)N3CCOCC3)nc2Cc2ccccc2)CC(C)O1 (stereo not drawn) [compound 160, [(4-{2-[4-benzyl-5-(2,6-dimethyl-morpholin-4-yl)-oxazol-2-yl]-2-morpholin-4-yl-ethyl}-cyclohexyl)-thiophen-2-yl-methyl]-dimethylamine], the inhibition at 1 µM rises from 65% to 79%.

First: CC1CN(c2oc(C(CC3CCC(C(c4cccc(F)c4)N(C)C)CC3)N3CCN(c4ccc(F)cc4)CC3)nc2Cc2ccccc2)CC(C)O1 (stereo not drawn) [compound 153, [(4-{2-[4-benzyl-5-(2,6-dimethylmorpholin-4-yl)-oxazol-2-yl]-2-[4-(4-fluorophenyl)-piperazin-1-yl]-ethyl}-cyclohexyl)-(3-fluorophenyl)-methyl]-dimethylamine]
Second: COc1ccc(N2CCN(C(CC3CCC(C(c4cccc(F)c4)N(C)C)CC3)c3nc(Cc4ccccc4)c(N4CC(C)OC(C)C4)o3)CC2)cc1 (stereo not drawn) [compound 156, [(4-{2-[4-benzyl-5-(2,6-dimethylmorpholin-4-yl)-oxazol-2-yl]-2-[4-(4-methoxyphenyl)-piperazin-1-yl]-ethyl}-cyclohexyl)-(3-fluorophenyl)-methyl]-dimethylamine]
The inhibition at 1 µM of the first is lower: 71% for the first, 74% for the second.

Compared with COc1ccc(N2CCN(c3oc(C(CC4CCC(C(c5cccc(F)c5)N(C)C)CC4)N4CCN(c5ccc(OC)cc5)CC4)nc3Cc3ccccc3)CC2)cc1 (stereo not drawn) [compound 155, [(4-{2-{4-benzyl-5-[4-(4-methoxyphenyl)-piperazin-1-yl]-oxazol-2-yl}-2-[4-(4-methoxyphenyl)-piperazin-1-yl]-ethyl}-cyclohexyl)-(3-fluorophenyl)-methyl]-dimethylamine], COc1ccc(N2CCN(c3oc(C(CC4CCC(C(c5cccs5)N(C)C)CC4)N4CCN(c5ccc(OC)cc5)CC4)nc3Cc3ccccc3)CC2)cc1 (stereo not drawn) [compound 164, [(4-{2-{4-benzyl-5-[4-(4-methoxyphenyl)-piperazin-1-yl]-oxazol-2-yl}-2-[4-(4-methoxyphenyl)-piperazin-1-yl]-ethyl}-cyclohexyl)-thiophen-2-yl-methyl]-dimethylamine] is higher in inhibition at 1 µM: 82% for the first, 93% for the second.

Compared with COc1ccc(N2CCN(c3oc(C(CC4CCC(C(c5cccc(F)c5)N(C)C)CC4)N4CCc5ccccc5C4)nc3Cc3ccccc3)CC2)cc1 (stereo not drawn) [compound 157, [{4-[2-{4-benzyl-5-[4-(4-methoxy-phenyl)-piperazin-1-yl]-oxazol-2-yl}-2-(3,4-dihydro-1H-isoquinolin-2-yl)-ethyl]-cyclohexyl}-(3-fluorophenyl)-methyl]-dimethylamine], COc1ccc(N2CCN(c3oc(C(CC4CCC(C(c5cccs5)N(C)C)CC4)N4CCN(c5ccc(F)cc5)CC4)nc3Cc3ccccc3)CC2)cc1 (stereo not drawn) [compound 162, [(4-{2-{4-benzyl-5-[4-(4-methoxy-phenyl)-piperazin-1-yl]-oxazol-2-yl}-2-[4-(4-fluorophenyl)-piperazin-1-yl]-ethyl}-cyclohexyl)-thiophen-2-yl-methyl]-dimethylamine] is higher in inhibition at 1 µM: 84% for the first, 96% for the second.

Going from CN(C)C(c1cccs1)C1CCC(CC(c2nc(Cc3ccccc3)c(N3CCOCC3)o2)N2CCOCC2)CC1 (stereo not drawn) [compound 158, ({4-[2-(4-benzyl-5-morpholin-4-yl-oxazol-2-yl)-2-morpholin-4-yl-ethyl]-cyclohexyl}-thiophen-2-yl-methyl)-dimethylamine] to CN(C)C(c1cccs1)C1CCC(CC(c2nc(Cc3ccccc3)c(N3CCOCC3)o2)N2CCN(c3ccc(F)cc3)CC2)CC1 (stereo not drawn) [compound 161, [(4-{2-(4-benzyl-5-morpholin-4-yl-oxazol-2-yl)-2-[4-(4-fluorophenyl)-piperazin-1-yl]-ethyl}-cyclohexyl)-thiophen-2-yl-methyl]-dimethylamine], the inhibition at 1 µM rises from 83% to 87%.

Compared with COc1ccc(N2CCN(c3oc(C(CC4CCC(C(c5cccs5)N(C)C)CC4)N4CCOCC4)nc3Cc3ccccc3)CC2)cc1 (stereo not drawn) [compound 159, {[4-(2-{4-benzyl-5-[4-(4-methoxyphenyl)-piperazin-1-yl]-oxazol-2-yl}-2-morpholin-4-yl-ethyl)-cyclohexyl]-thiophen-2-yl-methyl}-dimethylamine], COc1ccc(N2CCN(C(CC3CCC(C(c4cccs4)N(C)C)CC3)c3nc(Cc4ccccc4)c(N4CCCC4)o3)CC2)cc1 (stereo not drawn) [compound 163, [(4-{2-(4-benzyl-5-pyrrolidin-1-yl-oxazol-2-yl)-2-[4-(4-methoxyphenyl)-piperazin-1-yl]-ethyl}-cyclohexyl)-thiophen-2-yl-methyl]-dimethylamine] is lower in inhibition at 1 µM: 94% for the first, 83% for the second.

Work on COc1ccc(N2CCN(C(CC3CCC(C(c4cccs4)N(C)C)CC3)c3nc(Cc4ccccc4)c(N4CC(C)OC(C)C4)o3)CC2)cc1 (stereo not drawn) [compound 165, [(4-{2-[4-benzyl-5-(2,6-dimethyl-morpholin-4-yl)-oxazol-2-yl]-2-[4-(4-methoxyphenyl)-piperazin-1-yl]-ethyl}-cyclohexyl)-thiophen-2-yl-methyl]-dimethylamine] yielded an inhibition at 1 µM of 93%.
